Reference: the kinase profiling compilation of Christmann-Franck et al. (2016)

Assays:
Test in all cases: SelectScreen, TR FRET
Conditions in all cases: compound 5.0 µM
ADRBK2 (human) = ADRBK2 (human) (UniProt P35626)
AKT1 (human) = AKT1 (human) (UniProt P31749)
AKT2 (human) = AKT2 (human) (UniProt P31751)
AURKB (human) = AURKB (human) (UniProt Q96GD4)
CAMK2A (human) = CAMK2A (human) (UniProt Q9UQM7)
CAMK2D (human) = CAMK2D (human) (UniProt Q13557)
CSNK1G1 (human) = CSNK1G1 (human) (UniProt Q9HCP0)
CSNK2A2 (human) = CSNK2A2 (human) (UniProt P19784)
Sequence of CSNK2A2 (human) (P19784 whole entry, looked up): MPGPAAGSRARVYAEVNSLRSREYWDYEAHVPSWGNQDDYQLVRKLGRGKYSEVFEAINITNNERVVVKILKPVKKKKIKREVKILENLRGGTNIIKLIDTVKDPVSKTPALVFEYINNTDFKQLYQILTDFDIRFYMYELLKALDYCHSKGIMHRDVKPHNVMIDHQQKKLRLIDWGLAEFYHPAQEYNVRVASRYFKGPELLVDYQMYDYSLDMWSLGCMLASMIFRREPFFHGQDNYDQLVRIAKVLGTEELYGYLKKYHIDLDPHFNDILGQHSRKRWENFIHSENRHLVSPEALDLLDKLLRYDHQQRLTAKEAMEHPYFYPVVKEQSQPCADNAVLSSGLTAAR

DAPK3 (human) = DAPK3 (human) (UniProt O43293)
[1] = tested on: EGFR (human), P00533 [L858R]
EPHA2 (human) = EPHA2 (human) (UniProt P29317)
EPHB2 (human) = EPHB2 (human) (UniProt P29323)
EPHB4 (human) = EPHB4 (human) (UniProt P54760)
FGFR1 (human) = FGFR1 (human) (UniProt P11362)
FGFR2 (human) = FGFR2 (human) (UniProt P21802)
FLT3 (human) = FLT3 (human) (UniProt P36888)
FYN (human) = FYN (human) (UniProt P06241)
IKBKB (human) = IKBKB (human) (UniProt O14920)
INSRR (human) = INSRR (human) (UniProt P14616)
IRAK4 (human) = IRAK4 (human) (UniProt Q9NWZ3)
KIT (human) = KIT (human) (UniProt P10721)
[2] = tested on: LYN (human), P07948 [23-43 del]
MAP4K4 (human) = MAP4K4 (human) (UniProt O95819)
Sequence of MAP4K4 (human) (O95819 whole entry, looked up): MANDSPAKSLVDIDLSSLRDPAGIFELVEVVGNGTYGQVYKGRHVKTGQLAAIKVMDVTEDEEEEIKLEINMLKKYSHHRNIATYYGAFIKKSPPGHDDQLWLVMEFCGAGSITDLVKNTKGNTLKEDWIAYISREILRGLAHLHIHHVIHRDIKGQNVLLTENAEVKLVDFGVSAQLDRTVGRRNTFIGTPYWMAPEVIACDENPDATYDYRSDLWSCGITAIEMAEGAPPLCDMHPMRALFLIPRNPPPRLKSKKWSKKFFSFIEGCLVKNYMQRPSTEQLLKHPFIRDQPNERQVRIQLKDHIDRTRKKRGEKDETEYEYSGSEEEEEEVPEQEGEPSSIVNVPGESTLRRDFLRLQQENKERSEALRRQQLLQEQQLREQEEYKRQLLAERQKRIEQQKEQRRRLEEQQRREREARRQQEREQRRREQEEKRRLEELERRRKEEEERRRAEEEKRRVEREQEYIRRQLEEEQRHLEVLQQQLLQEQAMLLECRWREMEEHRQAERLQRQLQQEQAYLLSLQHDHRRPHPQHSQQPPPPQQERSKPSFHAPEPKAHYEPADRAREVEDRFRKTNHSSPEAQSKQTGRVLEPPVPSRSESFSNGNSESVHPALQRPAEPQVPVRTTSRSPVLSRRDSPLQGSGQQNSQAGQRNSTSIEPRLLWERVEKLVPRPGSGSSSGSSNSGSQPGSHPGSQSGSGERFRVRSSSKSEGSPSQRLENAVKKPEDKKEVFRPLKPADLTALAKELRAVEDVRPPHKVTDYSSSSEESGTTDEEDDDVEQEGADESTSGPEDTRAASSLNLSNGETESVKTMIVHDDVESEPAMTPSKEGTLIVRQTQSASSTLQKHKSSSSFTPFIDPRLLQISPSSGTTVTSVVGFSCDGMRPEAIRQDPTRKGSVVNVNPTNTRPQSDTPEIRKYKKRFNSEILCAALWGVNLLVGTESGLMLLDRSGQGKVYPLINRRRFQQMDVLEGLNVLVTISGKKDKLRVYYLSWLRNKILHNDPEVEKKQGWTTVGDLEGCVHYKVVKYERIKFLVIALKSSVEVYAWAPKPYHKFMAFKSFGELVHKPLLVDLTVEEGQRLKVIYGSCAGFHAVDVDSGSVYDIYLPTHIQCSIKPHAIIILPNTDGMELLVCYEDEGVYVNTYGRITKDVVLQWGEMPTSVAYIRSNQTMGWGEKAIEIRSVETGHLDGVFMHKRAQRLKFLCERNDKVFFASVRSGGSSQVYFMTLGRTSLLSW

MAP4K5 (human) = MAP4K5 (human) (UniProt Q9Y4K4)
MERTK (human) = MERTK (human) (UniProt Q12866)
NTRK1 (human) = NTRK1 (human) (UniProt P04629)
Sequence of NTRK1 (human) (P04629 whole entry, looked up): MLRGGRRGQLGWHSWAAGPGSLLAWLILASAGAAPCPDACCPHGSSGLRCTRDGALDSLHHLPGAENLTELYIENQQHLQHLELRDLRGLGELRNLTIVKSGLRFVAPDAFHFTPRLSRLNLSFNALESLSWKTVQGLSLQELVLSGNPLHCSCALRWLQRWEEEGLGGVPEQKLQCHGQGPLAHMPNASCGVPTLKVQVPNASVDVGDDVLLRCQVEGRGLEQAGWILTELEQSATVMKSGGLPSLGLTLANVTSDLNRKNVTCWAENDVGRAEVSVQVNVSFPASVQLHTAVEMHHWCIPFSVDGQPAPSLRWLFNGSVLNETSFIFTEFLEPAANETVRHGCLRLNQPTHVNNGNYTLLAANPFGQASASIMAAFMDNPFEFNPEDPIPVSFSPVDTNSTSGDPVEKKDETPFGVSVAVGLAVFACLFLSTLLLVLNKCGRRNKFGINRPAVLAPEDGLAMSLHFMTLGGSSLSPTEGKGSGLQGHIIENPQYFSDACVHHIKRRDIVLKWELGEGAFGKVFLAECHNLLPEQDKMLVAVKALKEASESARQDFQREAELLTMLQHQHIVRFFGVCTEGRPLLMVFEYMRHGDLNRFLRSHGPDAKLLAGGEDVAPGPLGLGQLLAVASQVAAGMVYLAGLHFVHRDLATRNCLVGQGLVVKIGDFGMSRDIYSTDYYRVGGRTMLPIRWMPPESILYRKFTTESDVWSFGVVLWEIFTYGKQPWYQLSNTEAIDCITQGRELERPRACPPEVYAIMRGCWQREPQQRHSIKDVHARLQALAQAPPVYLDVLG

PAK3 (human) = PAK3 (human) (UniProt O75914)
PLK3 (human) = PLK3 (human) (UniProt Q9H4B4)
PRKCB2 (human) = PRKCB2 (human) (UniProt P05771)
Sequence of PRKCB2 (human) (P05771 whole entry, looked up): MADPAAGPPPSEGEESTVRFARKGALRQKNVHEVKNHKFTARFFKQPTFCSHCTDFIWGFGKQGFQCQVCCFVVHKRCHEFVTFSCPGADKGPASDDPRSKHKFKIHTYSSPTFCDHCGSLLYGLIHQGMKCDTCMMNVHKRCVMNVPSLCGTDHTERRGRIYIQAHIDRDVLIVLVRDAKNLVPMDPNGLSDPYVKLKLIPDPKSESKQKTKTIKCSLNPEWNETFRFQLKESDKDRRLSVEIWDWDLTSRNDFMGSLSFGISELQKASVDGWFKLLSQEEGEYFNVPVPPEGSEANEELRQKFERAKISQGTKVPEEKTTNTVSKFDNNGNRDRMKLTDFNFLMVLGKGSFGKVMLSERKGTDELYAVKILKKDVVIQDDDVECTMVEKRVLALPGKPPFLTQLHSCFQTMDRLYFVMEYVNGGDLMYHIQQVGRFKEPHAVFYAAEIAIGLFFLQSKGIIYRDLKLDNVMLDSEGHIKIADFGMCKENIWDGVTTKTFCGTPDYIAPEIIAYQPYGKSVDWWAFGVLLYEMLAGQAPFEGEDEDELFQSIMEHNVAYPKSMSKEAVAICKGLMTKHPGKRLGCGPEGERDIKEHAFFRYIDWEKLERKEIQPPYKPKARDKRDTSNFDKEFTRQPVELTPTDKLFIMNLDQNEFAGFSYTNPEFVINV

PRKCG (human) = PRKCG (human) (UniProt P05129)
PRKD1 (human) = PRKD1 (human) (UniProt Q15139)
ROCK2 (human) = ROCK2 (human) (UniProt O75116)
ROS1 (human) = ROS1 (human) (UniProt P08922)
RPS6KA3 KD1 KD2 (human) = RPS6KA3 KD1 KD2 (human) (UniProt P51812)
Sequence of RPS6KA3 KD1 KD2 (human) (P51812 whole entry, looked up): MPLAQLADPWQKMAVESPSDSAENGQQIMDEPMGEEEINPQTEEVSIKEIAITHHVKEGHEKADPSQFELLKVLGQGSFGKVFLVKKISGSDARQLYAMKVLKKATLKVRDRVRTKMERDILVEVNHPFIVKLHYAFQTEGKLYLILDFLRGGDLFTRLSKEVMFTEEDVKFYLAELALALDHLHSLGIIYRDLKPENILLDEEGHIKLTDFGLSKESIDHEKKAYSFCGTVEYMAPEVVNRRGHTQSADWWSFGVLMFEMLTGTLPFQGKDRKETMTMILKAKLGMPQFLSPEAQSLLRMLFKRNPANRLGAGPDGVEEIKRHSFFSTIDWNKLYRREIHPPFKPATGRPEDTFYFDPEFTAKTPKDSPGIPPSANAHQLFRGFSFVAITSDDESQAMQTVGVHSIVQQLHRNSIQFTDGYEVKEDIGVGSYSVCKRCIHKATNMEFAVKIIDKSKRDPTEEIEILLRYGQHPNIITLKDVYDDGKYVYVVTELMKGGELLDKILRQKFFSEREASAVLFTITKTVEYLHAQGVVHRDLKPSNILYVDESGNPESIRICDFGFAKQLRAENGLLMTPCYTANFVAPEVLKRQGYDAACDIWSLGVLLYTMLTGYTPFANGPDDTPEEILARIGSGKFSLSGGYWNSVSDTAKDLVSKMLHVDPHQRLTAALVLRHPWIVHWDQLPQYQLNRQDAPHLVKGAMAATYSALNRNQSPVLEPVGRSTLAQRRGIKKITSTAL

RPS6KB1 (human) = RPS6KB1 (human) (UniProt P23443)
SRMS (human) = SRMS (human) (UniProt Q9H3Y6)
SRPK2 (human) = SRPK2 (human) (UniProt P78362)
TSSK2 (human) = TSSK2 (human) (UniProt Q96PF2)
Sequence of TSSK2 (human) (Q96PF2 whole entry, looked up): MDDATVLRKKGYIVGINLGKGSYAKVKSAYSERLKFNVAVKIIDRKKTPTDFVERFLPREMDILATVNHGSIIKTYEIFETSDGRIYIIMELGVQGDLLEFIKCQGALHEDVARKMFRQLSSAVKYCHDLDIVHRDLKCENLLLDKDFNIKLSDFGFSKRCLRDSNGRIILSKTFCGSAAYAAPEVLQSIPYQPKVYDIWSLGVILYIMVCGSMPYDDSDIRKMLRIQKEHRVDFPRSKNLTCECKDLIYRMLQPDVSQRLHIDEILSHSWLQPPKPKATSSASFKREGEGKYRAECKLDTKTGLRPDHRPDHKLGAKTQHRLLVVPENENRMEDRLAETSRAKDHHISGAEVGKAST

TYRO3 (human) = TYRO3 (human) (UniProt Q06418)
YES1 (human) = YES1 (human) (UniProt P07947)

Sequence of CAMK2A (human) (Q9UQM7 whole entry, looked up): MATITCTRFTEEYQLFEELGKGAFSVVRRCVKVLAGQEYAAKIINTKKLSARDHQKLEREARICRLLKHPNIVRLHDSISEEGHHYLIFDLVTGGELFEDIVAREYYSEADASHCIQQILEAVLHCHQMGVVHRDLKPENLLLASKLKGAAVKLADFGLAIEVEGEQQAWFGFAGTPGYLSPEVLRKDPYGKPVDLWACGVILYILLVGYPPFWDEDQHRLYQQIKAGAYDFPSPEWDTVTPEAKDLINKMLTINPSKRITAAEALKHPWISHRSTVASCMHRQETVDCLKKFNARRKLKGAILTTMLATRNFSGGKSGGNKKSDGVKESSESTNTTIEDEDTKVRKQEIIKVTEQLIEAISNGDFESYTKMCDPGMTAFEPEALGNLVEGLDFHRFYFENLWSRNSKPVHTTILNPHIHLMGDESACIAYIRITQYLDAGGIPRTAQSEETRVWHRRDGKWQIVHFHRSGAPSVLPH
Sequence of AURKB (human) (Q96GD4 whole entry, looked up): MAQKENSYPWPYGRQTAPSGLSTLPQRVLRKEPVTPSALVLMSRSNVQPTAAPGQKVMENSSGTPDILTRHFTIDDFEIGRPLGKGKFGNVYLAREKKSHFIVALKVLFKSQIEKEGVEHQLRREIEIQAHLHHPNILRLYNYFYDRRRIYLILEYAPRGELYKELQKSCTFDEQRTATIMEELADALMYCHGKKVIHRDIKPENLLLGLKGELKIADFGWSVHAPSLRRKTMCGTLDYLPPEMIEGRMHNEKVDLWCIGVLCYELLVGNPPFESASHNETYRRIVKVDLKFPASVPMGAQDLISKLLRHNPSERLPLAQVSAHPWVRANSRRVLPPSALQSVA

Nc1cc(C(F)(F)F)c(-c2cc(N3CCOCC3)nc(N3CCOCC3)n2)cn1
inhibition (ADRBK2 (human)): 2%
inhibition (AKT1 (human)): 2%
inhibition (AKT2 (human)): 0%
inhibition (AURKB (human)): 11%
inhibition (CAMK2A (human)): 2%
inhibition (CAMK2D (human)): 1%
inhibition (CSNK1G1 (human)): 1%
inhibition (CSNK2A2 (human)): -2%
inhibition (DAPK3 (human)): 1%
inhibition [1]: 12%
inhibition (EPHA2 (human)): 8%
inhibition (EPHB2 (human)): 0%
inhibition (EPHB4 (human)): -4%
inhibition (FGFR1 (human)): 4%
inhibition (FGFR2 (human)): 2%
inhibition (FLT3 (human)): 18%
inhibition (FYN (human)): 9%
inhibition (IKBKB (human)): -2%
inhibition (INSRR (human)): 3%
inhibition (IRAK4 (human)): 12%
inhibition (KIT (human)): 39%
inhibition [2]: 3%
inhibition (MAP4K4 (human)): 1%
inhibition (MAP4K5 (human)): 10%
inhibition (MERTK (human)): 3%
inhibition (NTRK1 (human)): 9%
inhibition (PAK3 (human)): -1%
inhibition (PLK3 (human)): 1%
inhibition (PRKCB2 (human)): 8%
inhibition (PRKCG (human)): 5%
inhibition (PRKD1 (human)): 5%
inhibition (ROCK2 (human)): 3%
inhibition (ROS1 (human)): 27%
inhibition (RPS6KA3 KD1 KD2 (human)): 2%
inhibition (RPS6KB1 (human)): 8%
inhibition (SRMS (human)): 13%
inhibition (SRPK2 (human)): 7%
inhibition (TSSK2 (human)): -6%
inhibition (TYRO3 (human)): 3%
inhibition (YES1 (human)): 12%
